Measurements published in US8278301B2, “2-alkylbenzoxazole carboxamides as 5HT3 modulators” (Albany Molecular Research, Inc., priority 2006, dated 2012).
Counter-ions that a name gives are not always drawn.

How the values were obtained:
mouse 5-HT3 receptor = target: T1, mouse 5-HT3 receptor (Mus musculus, UniProt P23979); assay: Compound affinity for the mouse 5-HT3 receptor (Assay C), [3H]-GR65630 radioligand binding, Novoscreen; settings: Assay C; single concentration 100 nM, in duplicate; [3H]-GR65630; read-out: Mouse % Inhibition @ 100 nM
T1 construct: host or cells: mouse neuroblastoma cells (N1E-155 as printed)
T1 sequence (P23979 24-489): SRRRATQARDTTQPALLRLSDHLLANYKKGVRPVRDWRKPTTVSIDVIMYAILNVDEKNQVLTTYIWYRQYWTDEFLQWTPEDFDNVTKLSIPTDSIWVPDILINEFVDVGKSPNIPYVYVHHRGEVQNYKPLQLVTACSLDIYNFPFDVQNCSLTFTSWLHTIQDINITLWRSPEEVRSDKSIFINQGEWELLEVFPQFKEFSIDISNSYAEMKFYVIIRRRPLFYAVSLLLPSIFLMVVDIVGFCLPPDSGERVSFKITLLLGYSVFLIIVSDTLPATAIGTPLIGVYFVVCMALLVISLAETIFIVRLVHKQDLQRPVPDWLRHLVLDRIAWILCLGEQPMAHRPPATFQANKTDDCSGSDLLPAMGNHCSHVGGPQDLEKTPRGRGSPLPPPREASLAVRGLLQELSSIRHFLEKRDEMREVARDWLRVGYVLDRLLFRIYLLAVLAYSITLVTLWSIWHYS
Protocol: Compound Affinity for the Mouse 5-HT3Receptor (Assay C)
(§1) Compounds were tested by Novoscreen Biosciences Corporation, 7170 Standard Drive, Hanover, Md. in a radioligand binding assay using the mouse 5-HT3 receptor derived from mouse neuroblastoma cells and [^3H]-GR65630 (ligand). The non-specific binding determinant was MDL 72222. Compounds were tested at a single concentration of 100 nM in duplicate. Percent inhibition is reported. In order to evaluate the relative affinity of the various compounds for the 5-HT3 receptor, N1E-155 cell lines were developed to express the target protein. For binding, these cells were homogenized, centrifuged and washed with buffer (20 mM HEPES, 150 mM NaCl, pH 7.4) then suspended in 0.5 mL of buffer and [^3H]-GR65630 added at a concentration of 3.5×10^−10 M. An initial single concentration of 10^−7 M of the test compound was then added. Incubation was carried out at room temperature for 60 minutes at 25° C. then was terminated by rapid removal of the incubation medium. Radioactivity was assessed using liquid scintillation spectrophotometry after exposure to scintillation cocktail for at least three hours. […] Ki values were then calculated from the Cheng-Prusoff equation. In all of the above binding studies the non-specific determinant was MDL-72222 (1.0 μM).
(§2) In the table below, the assay in which the data were obtained is shown (as A, B. C, or D) along with the data.

human 5-HT3 receptor [1] = target: T2, human 5-HT3 receptor (Homo sapiens, UniProt P46098); assay: Compound affinity for the human 5-HT3 receptor (Assay D), [3H]BRL 43694 radioligand binding, Cerep; set-up: host or cells: CHO cells
T2 sequence (P46098 24-478): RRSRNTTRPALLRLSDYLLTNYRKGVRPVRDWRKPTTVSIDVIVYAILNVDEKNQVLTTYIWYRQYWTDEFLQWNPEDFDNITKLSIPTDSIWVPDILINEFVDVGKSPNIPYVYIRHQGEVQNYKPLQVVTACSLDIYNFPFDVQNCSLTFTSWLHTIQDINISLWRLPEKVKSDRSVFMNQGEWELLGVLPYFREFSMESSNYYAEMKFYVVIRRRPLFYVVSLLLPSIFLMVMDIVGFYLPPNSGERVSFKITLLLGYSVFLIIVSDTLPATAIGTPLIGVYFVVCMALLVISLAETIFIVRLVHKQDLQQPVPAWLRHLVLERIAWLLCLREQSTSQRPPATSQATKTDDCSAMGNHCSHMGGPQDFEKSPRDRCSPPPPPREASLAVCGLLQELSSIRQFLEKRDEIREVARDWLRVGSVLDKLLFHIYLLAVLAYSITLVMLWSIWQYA
Protocol: Compound Affinity for the Human 5-HT3Receptor (Assay D)
Compounds were tested by Cerep, Le Bois l'Evêque—B.P. 1-86600 Celle, L'Evescault, France in a radioligand binding assay using the human recombinant 5-HT3 receptor (CHO cells, Hope, A. G., Peters, J. A., Brown, A. M., Lambert, J. J. and Blackburn, T. P. Brit. J. Pharmacol., 1996, 118: 1237-1245) and [^3H]BRL 43694 (ligand) with a […] at 22° C. For the above studies, the non-specific binding determinant was MDL 72222 (10 μM). The IC50 values (concentration causing a half-maximal inhibition of control specific binding) and Hill coefficients were determined by non-linear regression analysis of the competition curves using Hill equation curve fitting. The inhibition constants (Ki) were calculated from the Cheng Prusoff equation (Ki=IC50/(1+(L/KD)), where L=concentration of radioligand in the assay, and KD=affinity of the radioligand for the receptor).
as §2

human 5-HT3 receptor [2] = target: T2, human 5-HT3 receptor; assay: Compound affinity for the human 5-HT3 receptor (Assay A), [3H]-GR65630 radioligand binding, MDS Pharma; set-up: host or cells: N1E-155 cell lines (so in the source)
Protocol: Compound Affinity for the Human 5-HT3 Receptor (Assay A)
as §1, with “tested by MDS Pharma Services—Taiwan Ltd., 158 Li—The Road, Peitou, Taipei, Taiwan 112 R.O.C. In order” for “tested by Novoscreen Biosciences Corporation, 7170 Standard Drive, Hanover, Md. in a radioligand binding assay using the mouse 5-HT3 receptor derived from mouse neuroblastoma cells and [^3H]-GR65630 (ligand). The non-specific binding determinant was MDL 72222. Compounds were tested at a single concentration of 100 nM in duplicate. Percent inhibition is reported. In order”, “for the human 5-HT3 receptor,” for “for the 5-HT3 receptor,”
as §2

[3] = Assay A, [3H]-GR65630, Cheng-Prusoff, read-out: Human 5HT3 Ki
[4] = Assay D, recombinant receptor in CHO cells, [3H]BRL 43694, Cheng-Prusoff, read-out: Human 5HT3 Ki

SMILES | inhibition at 0.1 µM (mouse 5-HT3 receptor) [%] | Ki (human 5-HT3 receptor [1]) [nM] | also measured
CC1(c2nc3c(C(=O)N[C@@H]4CN5CCC4CC5)cccc3o2)CC1 [Example 8, (S)—N-(1-Azabicyclo[2.2.2]oct-3-yl)-2-(1-methylcyclopropyl)benzoxazole-4-carboxamide Hydrochloride] | 97.6 | 19 | 
CC(C)(C)c1nc2c(C(=O)N[C@@H]3CN4CCC3CC4)cccc2o1 [Example 4, (S)—N-(1-Azabicyclo[2.2.2]oct-3-yl)-2-tert-butylbenzoxazole-4-carboxamide] | 94.3 | 30 | 
Cc1nc2c(C(=O)N[C@@H]3CN4CCC3CC4)cccc2o1 [Example 35, (S)—N-(1-Azabicyclo[2.2.2]oct-3-yl)-2-methylbenzoxazole-4-carboxamide] | 83 | 12 | 
O=C(N[C@@H]1CN2CCC1CC2)c1cccc2ocnc12 [Example 22, (S)—N-(1-Azabicyclo[2.2.2]oct-3-yl)-benzoxazole-4-carboxamide Hydrochloride] |  |  | Ki (human 5-HT3 receptor [2]; [3]): 16.6 nM
O=C(N[C@@H]1CN2CCC1CC2)c1cccc2oc(CC3CC3)nc12 [Example 12, (S)—N-(1-Azabicyclo[2.2.2]oct-3-yl)-2-(cyclopropylmethyl)benzoxazole-4-carboxamide Hydrochloride] | 90.6 | 26 | 
CN1[C@@H]2CCC[C@H]1C[C@@H](NC(=O)c1cccc3oc(C4(C)CC4)nc13)C2 [Example 7, Endo-N-(9-Methyl-9-azabicyclo[3.3.1]non-3-yl)-2-(1-methylcyclopropyl)benzoxazole-4-carboxamide Hydrochloride] | 96.7 | 3.3 | 
CC(=O)N1CCC(c2nc3c(C(=O)N[C@H]4C[C@H]5CCC[C@@H](C4)N5C)cccc3o2)CC1 [Example 23, Endo-N-(9-methyl-9-azabicyclo[3.3.1]non-3-yl)-2-(1-acetylpiperidin-4-yl)benzoxazole-4-carboxamide Hydrochloride] |  |  | Ki (human 5-HT3 receptor [2]; [3]): 36.6 nM
CN1[C@@H]2CCC[C@H]1C[C@@H](NC(=O)c1cccc3oc(C4CCCC4)nc13)C2 [Example 5, Endo-N-(9-Methyl-9-azabicyclo[3.3.1]non-3-yl)-2-cyclopentylbenzoxazole-4-carboxamide Hydrochloride] | 96.2 |  | Ki (human 5-HT3 receptor [2]): 2.27 nM
O=C(N[C@@H]1CN2CCC1CC2)c1cccc2oc(Cc3ccccc3)nc12 [Example 10, (S)—N-(1-Azabicyclo[2.2.2]oct-3-yl)-2-benzylbenzoxazole-4-carboxamide Hydrochloride] |  |  | Ki (human 5-HT3 receptor [1]; [4]): 21 nM
CN1[C@@H]2CCC[C@H]1C[C@@H](NC(=O)c1cccc3oc(Cc4ccccc4)nc13)C2 [Example 9, Endo-N-(9-Methyl-9-azabicyclo[3.3.1]non-3-yl)-2-benzylbenzoxazole-4-carboxamide Hydrochloride] | 94.7 | 11 | 
O=C(N[C@@H]1CN2CCC1CC2)c1cc(F)cc2oc(C3CC3)nc12 [Example 19, (S)—N-(1-Azabicyclo[2.2.2]oct-3-yl)-6-fluoro-2-cyclopropylbenzoxazole-4-carboxamide Hydrochloride] |  |  | Ki (human 5-HT3 receptor [1]; [4]): 44 nM
CN1[C@@H]2CCC[C@H]1C[C@@H](NC(=O)c1cccc3oc(C4CCC4)nc13)C2 [Example 17, Endo-N-(9-Methyl-9-azabicyclo[3.3.1]non-3-yl)-2-cyclobutylbenzoxazole-4-carboxamide Hydrochloride] | 108 | 7 | 
O=C(N[C@@H]1CN2CCC1CC2)c1cccc2oc(C3CCC3)nc12 [Example 18, (S)—N-(1-Azabicyclo[2.2.2]oct-3-yl)-2-cyclobutylbenzoxazole-4-carboxamide Hydrochloride] | 108 | 7 | 
Cc1nc2c(C(=O)N[C@H]3C[C@H]4CCC[C@@H](C3)N4C)cccc2o1 [Example 34, Endo-N-(9-Methyl-9-azabicyclo[3.3.1]non-3-yl)-2-methylbenzoxazole-4-carboxamide] | 79 | 5.5 | 
CC1CC1c1nc2c(C(=O)NC3CC4CCCC(C3)N4C)cccc2o1 (stereo not drawn) [Example 13, Endo-N-(9-Methyl-9-azabicyclo[3.3.1]non-3-yl)-2-(2-methylcyclopropyl)benzoxazole-4-carboxamide Hydrochloride] | 88.1 |  | Ki (human 5-HT3 receptor [2]): 5.74 nM
CN1[C@@H]2CCC[C@H]1C[C@@H](NC(=O)c1cccc3oc(C4CCOCC4)nc13)C2 [Example 24, Endo-N-(9-methyl-9-azabicyclo[3.3.1]non-3-yl)-2-(tetrahydro-2H-pyran-4-yl)benzoxazole-4-carboxamide Hydrochloride] |  |  | Ki (human 5-HT3 receptor [2]; [3]): 17.6 nM
CN1[C@@H]2CCC[C@H]1C[C@@H](NC(=O)c1cccc3oc(C(C)(C)C)nc13)C2 [Example 3, Endo-N-(9-Methyl-9-azabicyclo[3.3.1]non-3-yl)-2-tert-butylbenzoxazole-4-carboxamide] | 104 | 4.7 | 
CN1[C@@H]2CCC[C@H]1C[C@@H](NC(=O)c1cc(F)cc3oc(C4CC4)nc13)C2 [Example 20, Endo-N-(9-Methyl-9-azabicyclo[3.3.1]non-3-yl)-6-fluoro-2-cyclopropylbenzoxazole-4-carboxamide Hydrochloride] |  |  | Ki (human 5-HT3 receptor [1]; [4]): 5.4 nM
CN1[C@@H]2CCC[C@H]1C[C@@H](NC(=O)c1cccc3oc(CC4CC4)nc13)C2 [Example 11, Endo-N-(9-Methyl-9-azabicyclo[3.3.1]non-3-yl)-2-(cyclopropylmethyl)benzoxazole-4-carboxamide Hydrochloride] | 98.6 | 8.6 | 
